Assay results as given in patent US9006252B2, “Fused multicyclic compounds as protein kinase inhibitors” (National Health Research Institutes, priority 2008, dated 2015).
Values joined by “and” are separate entries in the source; they are usually repeats but may differ in a detail not shown here. Identical values can stand only once. Like-named read-outs stand apart in the source and are kept apart here.

Key:
Aurora A = target: T1, Aurora A (Homo sapiens, UniProt O14965); assay: Aurora Kinase A luminescent kinase assay (Kinase-Glo); type: biochemical; settings: IC50 values (concentration of a test compound at which activity of 50% of Aurora A is inhibited), GST-tAurora A (123-401aa) fusion protein
T1 construct: GST-tAurora A (123-401aa) fusion protein obtained above; made in house; host or cells: Sf9 insect cells (baculovirus, pBacPAK8)
T1 sequence (O14965 123-401): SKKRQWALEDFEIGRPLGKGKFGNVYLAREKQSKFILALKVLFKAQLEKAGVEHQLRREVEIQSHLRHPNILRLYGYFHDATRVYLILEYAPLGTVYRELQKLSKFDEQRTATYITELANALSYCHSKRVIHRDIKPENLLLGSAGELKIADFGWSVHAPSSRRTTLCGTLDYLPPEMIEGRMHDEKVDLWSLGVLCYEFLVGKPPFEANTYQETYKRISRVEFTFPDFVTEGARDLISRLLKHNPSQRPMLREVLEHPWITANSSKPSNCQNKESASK
Protocol: The Aurora A catalytic domain with an N-terminal GST tag was constructed in pBacPAK8 plasmid and expressed in sf9 cells. […] To concentrate GST-tAurora A, buffer was replaced with Tris buffer (100 mM Tris (pH 7.5), 300 mM NaCl, 1 mM EDTA, 4 mM DTT) using Amicon ultra-15 (MWCO:30K, Millipore) to 2.4 mg/ml. After the addition of equal volume of glycerol and 0.04% Triton X-100, the proteins were stored aliquoted at −80° C.
Briefly, a test compound, enzyme, substrate-tetra(LRRWSLG), DTT and ATP were dissolved in Aur buffer (50 mM Tris-HCl pH 7.4, 10 mM NaCl, 10 mM MgCl2, and 100 μg/ml BSA) individually before the assay. […] 5 μM ATP (5 μl), 1 mM DTT (5 μl) and 0.1 mM tetra(LRRWSLG) peptide substrate (5 μl) were added into the reactions of test compounds and GST-tAurora A. The reactions were incubated at 37° C. for 90 min. 50 μl of Kinase-Glo Plus Reagent (V3771, Promega) was added into the reactions, followed by the incubation at 25° C. for 20 min.

HCT-116 cells = assay: HCT-116 cell viability, MTS assay; type: cell-based; settings: Homo sapiens, HCT-116, 96 h, read-out: IC50 values, HCT-116 cell viability
Protocol: HCT-116 cell viability was examined by the MTS assay (Promega, Madison, Wis., USA). 2000 HCT-116 cells in 100 μL McCoy's 5a medium were seeded in each well of a 96-well plate. After 96-h incubation with a test compound, the cells were incubated with 20 μL of a MTS/PMS mixture (MTS/PMS ratio: 20:1) for 2 h at 37° C. in a humidified incubator with 5% CO2 to allow viable cells to convert the tetrazolium salt (MTS) into formazan. The amount/concentration of formazan, which indicates the number of live cells, was determined by measuring the absorbance at 490 nm using a PerkinElmer Victor2 plate reader (PerkinElmer, Shelton, Conn., USA).

[1] = tested on: HCT-116 colon tumor xenograft; assay: In vivo anticancer efficacy in colon tumor xenograft mice (injected with HCT-116); parameters: species or system nude mice
Protocol: In vivo anticancer efficacy of the compounds of this invention was assessed using colon tumor xenograft mice (injected with HCT-116), as described in Cancer Research 2004, 64, 4621-4628.
(§1) HCT-116 cells were injected via s.c. in nude mice to form colon tumor xenograft mice. Mice bearing tumors with a size of ˜100 mm^3 were randomly assigned to three groups: a vehicle control group (10 mice), a positive control group (10 mice), and a treatment group (21 mice). Of the treated mice, ten received Compound 3 at a daily dosage of 25 mg/kg via IV injection through the tail veins for 5 days/week for 2 consecutive weeks (days 1-5 and 8-12) and eleven received the same compound at a daily dosage of 50 mg/kg via IV injection through the tail veins for 5 consecutive days (days 1-5). The positive control mice received VX-680 (a known anti-cancer drug) at a daily dosage of 50 mg/kg, also via IV injection through the tail veins for 5 days/week for 2 consecutive weeks (days 1-5 and 8-12).
as §1, with “Compound 4” for “Compound 3”, “of 5 mg/kg and eleven received the same compound at a daily dosage of 15” for “of 25”, “and 8-12).” for “and 8-12) and eleven received the same compound at a daily dosage of 50 mg/kg via IV injection through the tail veins for 5 consecutive days (days 1-5).”, “VX-680” for “VX-680 (a known anti-cancer drug)”

COc1cc2ncnc(NCCc3ccc(NC(=O)Nc4ccccc4)cc3)c2cc1OC [Compound 1, 1-(4-(2-(6,7-dimethoxyquinazolin-4-ylamino)ethyl)phenyl)-3-phenylurea]
IC50 (Aurora A): 1 to 50 nM and < 1000 nM
IC50 (HCT-116 cells): < 100 nM

COc1ccc(-c2nc3c(NCCc4ccc(NC(=O)Nc5ccccc5)cc4)ncnc3o2)cc1 [Compound 206]
IC50 (Aurora A): < 1000 nM and 51 to 450 nM
IC50 (HCT-116 cells; 96-h incubation, MTS): 101 to 850 nM

O=C(Nc1ccccc1)Nc1ccc(CCNc2ncnc3oc(-c4ccc(O)cc4)nc23)cc1 [Compound 220]
IC50 (Aurora A): 1 to 50 nM and < 1000 nM
IC50 (HCT-116 cells; 96-h incubation, MTS): 101 to 850 nM

CCN(CCO)CCCOc1ccc2c(NCCc3ccc(NC(=O)Nc4ccccc4)cc3)ncnc2c1 [Compound 20]
IC50 (Aurora A): < 1000 nM and 1 to 50 nM
IC50 (HCT-116 cells; 96-h incubation, MTS): < 100 nM

CN(C)CCCOc1ccc2c(NCCc3ccc(NC(=O)Nc4ccccc4)cc3)ncnc2c1 [Compound 4, 1-(4-{2-[7-(3-Dimethylamino-propoxy)-quinazolin-4-ylamino]-ethyl}-phenyl)-3-phenyl-urea]
IC50 (Aurora A): < 1000 nM and 51 to 450 nM
IC50 (HCT-116 cells; 96-h incubation, MTS): < 100 nM
tumor size as % of that in the vehicle control group ([1]; 5 mg/kg daily IV, days 1-5 and 8-12, 22nd day post treatment): 67%
tumor size as % of that in the vehicle control group ([1]; 15 mg/kg daily IV, days 1-5 and 8-12, 22nd day post treatment): 37%
tumor growth suppression (in words) ([1]; dosage of 15 mg/kg IV, versus VX-680 at 50 mg/kg): suppressed tumor growth significantly and better than VX-680

COc1cc2ncnc(NCCc3ncc(NC(=O)Nc4ccccc4)s3)c2cc1OC [Compound 47]
IC50 (Aurora A): < 1000 nM and 1 to 50 nM
IC50 (HCT-116 cells; 96-h incubation, MTS): 101 to 850 nM

COc1cc2ncnc(NCCc3ccc(NC(=O)Nc4cccc(F)c4)cc3)c2cc1OC [Compound 5, 1-{4-[2-(6,7-Dimethoxy-quinazolin-4-ylamino)-ethyl]-phenyl}-3-(3-fluoro-phenyl)-urea]
IC50 (Aurora A): < 1000 nM and 51 to 450 nM
IC50 (HCT-116 cells; 96-h incubation, MTS): < 100 nM

COc1cc2ncnc(OCCc3ccc(NC(=O)Nc4ccccc4)cc3)c2cc1OC [Compound 232]
IC50 (Aurora A): 1 to 50 nM and < 1000 nM
IC50 (HCT-116 cells; 96-h incubation, MTS): 101 to 850 nM

COc1ccc2ncc(C#N)c(NCCc3ccc(NC(=O)Nc4ccccc4)cc3)c2c1 [Compound 231]
IC50 (Aurora A): 51 to 450 nM and < 1000 nM
IC50 (HCT-116 cells; 96-h incubation, MTS): 101 to 850 nM

O=C(Nc1ccccc1)Nc1ccc(CCNc2ncnc3ccccc23)cc1 [Compound 248]
IC50 (Aurora A): 51 to 450 nM and < 1000 nM
IC50 (HCT-116 cells): < 100 nM

COc1cc2ncnc(NCCc3cnc(NC(=O)Nc4cccc(F)c4)s3)c2cc1OC [Compound 56]
IC50 (Aurora A): < 1000 nM and 51 to 450 nM
IC50 (HCT-116 cells; 96-h incubation, MTS): 101 to 850 nM

O=C(Nc1ccccc1)Nc1ccc(CCNc2ncnc3oc(-c4ccccn4)nc23)cc1 [Compound 237]
IC50 (Aurora A): 1 to 50 nM and < 1000 nM
IC50 (HCT-116 cells; 96-h incubation, MTS): 101 to 850 nM

O=C(Nc1ccccc1)Nc1ccc(CCNc2ncnc3oc(-c4ccncc4)nc23)cc1 [Compound 236]
IC50 (Aurora A): 51 to 450 nM and < 1000 nM
IC50 (HCT-116 cells; 96-h incubation, MTS): 101 to 850 nM

COc1cc2ncnc(NCCc3ccc(NC(=O)Nc4cc(F)cc(F)c4)cc3)c2cc1OC [Compound 244]
IC50 (Aurora A): 1 to 50 nM and < 1000 nM
IC50 (HCT-116 cells; 96-h incubation, MTS): < 100 nM

COc1cc2ncnc(NCCc3ccc(Nc4nc5ccccc5[nH]4)cc3)c2cc1OC [Compound 224]
IC50 (Aurora A): 1 to 50 nM and < 1000 nM
IC50 (HCT-116 cells; 96-h incubation, MTS): 101 to 850 nM

CN(C)CCCOc1ccc2c(NCCc3ccc(NC(=O)Nc4cccc(F)c4)cc3)ncnc2c1 [Compound 207]
IC50 (Aurora A): < 1000 nM and 51 to 450 nM
IC50 (HCT-116 cells; 96-h incubation, MTS): 101 to 850 nM

COc1cc2ncnc(NCCc3ccc(NC(=O)Nc4ccccc4F)cc3)c2cc1OC [Compound 246]
IC50 (Aurora A): 51 to 450 nM and < 1000 nM
IC50 (HCT-116 cells; 96-h incubation, MTS): 101 to 850 nM

COc1cc2ncnc(NCCc3cnc(NC(=O)Nc4cccc(Cl)c4)s3)c2cc1OC [Compound 228]
IC50 (Aurora A): 1 to 50 nM and < 1000 nM
IC50 (HCT-116 cells; 96-h incubation, MTS): < 100 nM

COc1cc2ncnc(N(C)CCc3ccc(NC(=O)Nc4ccccc4)cc3)c2cc1OC [Compound 240]
IC50 (Aurora A): 51 to 450 nM and < 1000 nM
IC50 (HCT-116 cells; 96-h incubation, MTS): < 100 nM

O=C(Nc1ccc(CCNc2ncnc3oc(-c4ccncc4)nc23)cc1)Nc1cccc(F)c1 [Compound 250]
IC50 (Aurora A): 51 to 450 nM and < 1000 nM
IC50 (HCT-116 cells; 96-h incubation, MTS): 101 to 850 nM

O=C(Nc1ccccc1)Nc1ccc(CCNc2ncnc3cc(F)ccc23)cc1 [Compound 253]
IC50 (Aurora A): 51 to 450 nM and < 1000 nM
IC50 (HCT-116 cells; 96-h incubation, MTS): < 100 nM

CCN(CCO)CCCOc1ccc2c(NCCc3ccc(NC(=O)Nc4cccc(F)c4)cc3)ncnc2c1 [Compound 22]
IC50 (Aurora A): < 1000 nM and 1 to 50 nM
IC50 (HCT-116 cells; 96-h incubation, MTS): 101 to 850 nM

O=C(Nc1ccccc1)Nc1ccc(CCNc2ncnc3oc(-c4cccnc4)nc23)cc1 [Compound 222]
IC50 (Aurora A): 51 to 450 nM and < 1000 nM
IC50 (HCT-116 cells; 96-h incubation, MTS): 101 to 850 nM

COc1cc2ncnc(NCCc3ccc(NC(=O)Nc4ccc(F)cc4)cc3)c2cc1OC [Compound 210]
IC50 (Aurora A): 1 to 50 nM and < 1000 nM
IC50 (HCT-116 cells; 96-h incubation, MTS): < 100 nM

CN(C)c1ccc2c(NCCc3ccc(NC(=O)Nc4ccccc4)cc3)ncnc2c1 [Compound 233]
IC50 (Aurora A): 51 to 450 nM and < 1000 nM
IC50 (HCT-116 cells; 96-h incubation, MTS): < 100 nM

COc1cccc(NC(=O)Nc2ccc(CCNc3ncnc4cc(OC)c(OC)cc34)cc2)c1 [Compound 205]
IC50 (Aurora A): < 1000 nM and 51 to 450 nM
IC50 (HCT-116 cells; 96-h incubation, MTS): 101 to 850 nM

COc1cc2ncnc(NCCc3ccc(NC(=O)Nc4cccnc4)cc3)c2cc1OC [Compound 2, 1-{4-[2-(6,7-Dimethoxy-quinazolin-4-ylamino)-ethyl]-phenyl}-3-pyridin-3-yl-urea]
IC50 (Aurora A): < 1000 nM and 51 to 450 nM
IC50 (HCT-116 cells; 96-h incubation, MTS): 101 to 850 nM

COc1cc2ncnc(NCCc3ccc(NC(=O)Nc4ccc(F)c(F)c4)cc3)c2cc1OC [Compound 247]
IC50 (Aurora A): 1 to 50 nM and < 1000 nM
IC50 (HCT-116 cells; 96-h incubation, MTS): 101 to 850 nM

COc1cc2ncc(C#N)c(NCCc3ccc(NC(=O)Nc4cccc(F)c4)cc3)c2cc1OC [Compound 225]
IC50 (Aurora A): 51 to 450 nM and < 1000 nM
IC50 (HCT-116 cells; 96-h incubation, MTS): 101 to 850 nM

COc1cc2ncnc(NCCc3cnc(NC(=O)Nc4cccc(Br)c4)s3)c2cc1OC [Compound 252]
IC50 (Aurora A): 1 to 50 nM and < 1000 nM
IC50 (HCT-116 cells; 96-h incubation, MTS): 101 to 850 nM

Cc1cc(Nc2cc(N3CCN(C)CC3)nc(Sc3ccc(NC(=O)C4CC4)cc3)n2)n[nH]1 [VX-680, reference compound]
tumor size as % of that in the vehicle control animals ([1]; 50 mg/kg daily IV, days 1-5 and 8-12, 22nd day post treatment): 50%

COc1cc2ncnc(NCCc3ccc(NC(=O)Nc4cccc(C(F)(F)F)c4)cc3)c2cc1OC [Compound 204]
IC50 (Aurora A): 1 to 50 nM and < 1000 nM
IC50 (HCT-116 cells; 96-h incubation, MTS): 101 to 850 nM
